13 compounds from ChEMBL document CHEMBL1201862, “PubChem BioAssay data set” (2004) can be followed below.

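Test compounds were applied to cells in 96-well plates for 48 hours at 5 doses. Here, GI50 denotes the concentration required for 50% inhibition of growth.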 Activity calls are given as the source filed them. Cut-off read from the data, not from the text of the source: active = GI50 up to about 1.1 µM and inactive = higher. Where only a bound is given, the exact number is not on record here.

Among the test systems are M14; SF-268; OVCAR-3; SN12C; RXF 393; TK-10; SF-539; OVCAR-8; HCT-116; SR; NCI-H460; NCI-H522; HCC 2998; SW-620; EKVX; 786-0; T47D; Hs-578T; PC-3.
Common to all, as to assay: growth of human tumour cells (NCI), 48 h

For the compound `COc1ccc(/C(=N\NC(=S)NN)C(c2ccc(OC)cc2)C2C(=O)Oc3ccccc32)cc1` (stereo not drawn), the GI50 with M14, in the test with SF-268, with OVCAR-3, in the test on SN12C, in the test with RXF 393 and in the test with TK-10 was > 10 µM (inactive) in each case. Further, the GI50 in the test with SF-539 is > 10 µM (inactive); in the test on OVCAR-8, > 10 µM (inactive); in the test on HCT-116, > 10 µM (inactive); in the test on SR, 80.7 µM (inactive); with NCI-H460, > 10 µM (inactive); with NCI-H522 it was 65.5 µM (inactive). Besides, the GI50 in the test on HCC 2998 was 9.31 µM (inactive); with SW-620, > 10 µM (inactive); with EKVX, > 10 µM (inactive); with 786-0 it was > 10 µM (inactive).

On to `CC(=O)OCCOCNC(=S)N/N=C(\C)c1cnccn1`, for which the GI50 is 17.1 µM (inactive) in the test with M14; 17.5 µM (inactive) in the test with SF-268; 23.7 µM (inactive) in the test with OVCAR-3; 29.7 µM (inactive) in the test with SN12C; 23.2 µM (inactive) with RXF 393; 28.4 µM (inactive) in the test with TK-10. For the same compound, the GI50 is 29.8 µM (inactive) in the test with SF-539; 30.1 µM (inactive) in the test with OVCAR-8; 34.3 µM (inactive) in the test on HCT-116; 18.4 µM (inactive) in the test with SR; 20.9 µM (inactive) in the test with NCI-H460; 25.2 µM (inactive) in the test with NCI-H522. In addition, the GI50 was 29 µM (inactive) in the test with HCC 2998, 23.9 µM (inactive) in the test on SW-620, 22.3 µM (inactive) in the test with EKVX and 33.4 µM (inactive) in the test with 786-0.

`COc1cccc(/C(Cl)=C(\C=O)c2cccc(OC)c2)c1`: the GI50 is 13.1 µM (inactive) in the test with M14; 3.88 µM (inactive) in the test with SF-268; 15.4 µM (inactive) in the test with OVCAR-3; 14 µM (inactive) in the test on SN12C; 5.12 µM (inactive) in the test with RXF 393; 20.4 µM (inactive) with TK-10. Further, the GI50 in the test on SF-539 is 17.4 µM (inactive); in the test with OVCAR-8, 10.7 µM (inactive); in the test on HCT-116, 3.28 µM (inactive); with SR, 5.35 µM (inactive); in the test on NCI-H460, 12.7 µM (inactive); in the test on NCI-H522, 2.68 µM (inactive). Further, the GI50 in the test with HCC 2998 is 13.2 µM (inactive); with SW-620, 6.81 µM (inactive); in the test on EKVX, 14.9 µM (inactive); in the test with 786-0 it was 14.8 µM (inactive).

On to `CCC1=C(C)/C(=C/c2[nH]c(C(Br)Br)c(CC)c2C)N=C1C(Br)Br`, for which the GI50 in the test on M14 is 55.7 µM (inactive); in the test on SF-268 it was 73.3 µM (inactive); in the test with OVCAR-3, 23.2 µM (inactive); in the test on SN12C, 31.2 µM (inactive); with RXF 393, 29.9 µM (inactive); in the test with TK-10, 41.2 µM (inactive). Moreover, the GI50 in the test with SF-539 is 53 µM (inactive); in the test with OVCAR-8, 26.6 µM (inactive); in the test on HCT-116, 23.8 µM (inactive); with SR, 10.8 µM (inactive); in the test on NCI-H460, 26.4 µM (inactive); with NCI-H522, 13 µM (inactive). Besides, the GI50 in the test on HCC 2998 is 12.8 µM (inactive); in the test with SW-620 it was 33.1 µM (inactive); in the test on EKVX it was 30.1 µM (inactive); in the test with 786-0 it was 63.2 µM (inactive).

Turning to `Cc1nsc2cc(Cl)n(C)c(=O)c12`, the GI50 in the test on M14, in the test on SF-268, in the test with OVCAR-3, with SN12C, in the test with RXF 393 and with TK-10 was > 100 µM (inactive) each time. Moreover, the GI50 is > 100 µM (inactive) with SF-539; > 100 µM (inactive) in the test on OVCAR-8; > 100 µM (inactive) in the test with HCT-116; > 100 µM (inactive) in the test on SR; > 100 µM (inactive) in the test with NCI-H460; 24.8 µM (inactive) in the test on NCI-H522. In addition, the GI50 is 0.991 µM (active) in the test on HCC 2998, > 100 µM (inactive) with SW-620, 50.4 µM (inactive) with EKVX and > 100 µM (inactive) in the test with 786-0.

As to `NC(=O)C(N)=O`, the GI50 in the test with M14, with SF-268, in the test with OVCAR-3, with SN12C, in the test on RXF 393 and in the test with TK-10 was > 100 µM (inactive) in each case. The GI50 in the test on SF-539, with OVCAR-8, with HCT-116, with SR, in the test on NCI-H460 and in the test with NCI-H522 was > 100 µM (inactive) throughout. The GI50 in the test on HCC 2998, in the test with SW-620, in the test on EKVX and with 786-0 was > 100 µM (inactive) throughout.

Regarding `COC1=CC(=O)C2C(C1=O)[C@@H]1c3ccccc3C[C@H]21` (stereo partly drawn), the GI50 in the test with M14, with SF-268, in the test on OVCAR-3, in the test on RXF 393, with TK-10 and in the test with SF-539 was > 100 µM (inactive) throughout. Also, the GI50 in the test on OVCAR-8 was 85.3 µM (inactive); in the test with SR, > 100 µM (inactive); in the test with NCI-H460, > 100 µM (inactive); in the test on NCI-H522, > 100 µM (inactive); with HCC 2998, > 100 µM (inactive); in the test with SW-620, > 100 µM (inactive). The GI50 in the test on EKVX and in the test with 786-0 was > 100 µM (inactive) in each case.

Consider `CC/C=C/C(=O)CC(O)(C(F)(F)F)C(F)(F)F`, for which the GI50 with M14 was > 100 µM (inactive); in the test on T47D, 82.2 µM (inactive); in the test with SF-268, > 100 µM (inactive); with SN12C, > 100 µM (inactive); in the test on RXF 393, > 100 µM (inactive); in the test on TK-10, > 100 µM (inactive). The GI50 in the test on SF-539, in the test on OVCAR-8, with HCT-116, in the test with SR, with NCI-H460 and in the test with HCC 2998 was > 100 µM (inactive) throughout. For the same compound, the GI50 in the test on SW-620 was > 100 µM (inactive); in the test with EKVX, > 100 µM (inactive); in the test with Hs-578T it was 19 µM (inactive); with 786-0, > 100 µM (inactive).

Regarding `CC(=O)OCC1OC(n2ccc(=O)[nH]c2=O)C(OC(C)=O)C(OC(C)=O)C1OC(C)=O` (stereo not drawn), the GI50 in the test on M14, with SF-268, in the test with OVCAR-3, in the test on SN12C, with RXF 393 and with TK-10 was > 100 µM (inactive) each time. In addition, the GI50 in the test with OVCAR-8, in the test on HCT-116, in the test on SR, in the test with NCI-H460, in the test on NCI-H522 and in the test with HCC 2998 was > 100 µM (inactive) in each case. Moreover, the GI50 with SW-620, with EKVX and in the test with 786-0 was > 100 µM (inactive) throughout.

In the case of `c1ccc(CNc2ncnc3nn[nH]c23)cc1`, the GI50 in the test on M14, in the test with T47D, in the test with OVCAR-3, with SN12C, in the test with RXF 393 and with PC-3 was > 100 µM (inactive) throughout. Besides, the GI50 in the test with TK-10, in the test on SF-539, in the test on OVCAR-8, with HCT-116, in the test with NCI-H522 and in the test on HCC 2998 was > 100 µM (inactive) each time. Moreover, the GI50 with SW-620, in the test with EKVX and in the test with 786-0 was > 100 µM (inactive) each time.

Turning to `c1ccc2c(C3NCCc4nc[nH]c43)cccc2c1` (stereo not drawn), the GI50 in the test with M14, in the test with SF-268, with OVCAR-3, in the test on SN12C, in the test with RXF 393 and in the test with TK-10 was > 100 µM (inactive) throughout. Also, the GI50 in the test on SF-539 is > 100 µM (inactive); in the test on OVCAR-8, > 100 µM (inactive); in the test with HCT-116 it was > 100 µM (inactive); in the test with SR it was > 100 µM (inactive); in the test on NCI-H460, > 100 µM (inactive); with NCI-H522 it was 98.4 µM (inactive). Also, the GI50 with HCC 2998, in the test with SW-620 and with 786-0 was > 100 µM (inactive) each time.

In the case of `CCOC(=O)C1S/C(=N\c2cccc(Cl)c2C)N=C1C` (stereo not drawn), the GI50 is 30.5 µM (inactive) in the test on SF-268; 22.9 µM (inactive) in the test on OVCAR-3; 18.8 µM (inactive) in the test with SN12C; 21.7 µM (inactive) with RXF 393; 35.6 µM (inactive) with TK-10; 25.6 µM (inactive) in the test on SF-539. The GI50 in the test on OVCAR-8 is 21.3 µM (inactive); with HCT-116, 22.8 µM (inactive); in the test with SR, 24.7 µM (inactive); in the test with NCI-H460, 33 µM (inactive); in the test on NCI-H522, 18.8 µM (inactive); with HCC 2998 it was > 10 µM (inactive). Further, the GI50 in the test on SW-620 was 28.4 µM (inactive); in the test with EKVX, > 10 µM (inactive); in the test on 786-0, 16.1 µM (inactive).

`COc1cc2cc(C(=O)N3CC(CCl)c4ccc(O)cc43)[nH]c2c(OC)c1OC` (stereo not drawn): the GI50 in the test on M14 was 0.00163 µM (active); in the test with T47D, 0.0356 µM (active); with SF-268 it was 0.00596 µM (active); in the test with OVCAR-3, 0.0031 µM (active); with SN12C, 0.00441 µM (active); in the test with RXF 393 it was < 0.0001 µM (active). The GI50 with TK-10 is 0.0408 µM (active); with SF-539 it was 0.00171 µM (active); with OVCAR-8 it was 0.00132 µM (active); with HCT-116, < 0.0001 µM (active); in the test with SR, 0.0034 µM (active); with NCI-H522, < 0.0001 µM (active). In addition, the GI50 with HCC 2998 is 0.000593 µM (active); with SW-620 it was 0.00233 µM (active); in the test with EKVX, 0.0513 µM (active); in the test with Hs-578T, 0.016 µM (active); in the test on 786-0 it was 0.00012 µM (active).
